{"source": "patent US5225410A", "about": "“Triazolyl hydrazide derivatives” (Egis Gyogyszergyar, priority 1989, dated 1993)", "key": {"[1]": {"test_system": "Gastric-secretion and ulcus", "assay": "Stomach-secretion and ulcus tests (pylorus ligature)", "assay_type": "in vivo, Wistar rats", "details": "3 hours before operation", "method": "Method: Shay, H., Komarov, S. A., Fels. S. S., Meranze, D., Gruenstein, M., Siplet, H.: Gastroenterology 5, 45 (1945); Adami, E., Marazzi-Ubertti, E., Tirba, C.: Arch. Int. Pharmacodyn. 147, 113 (1964)\nStarved wistar […] of 150-250 g body weight were used, 4 male and 4 female animals for each dose. On the day of the experiment the pylorus of the animals was ligatured under ether narcosis. The doses of the test compounds were administered per os, 3 hours before the operation. The control groups were treated with the carrier in identical way. 4 hours after the operation the animals were over-narcotized with ether, their stomach was removed, the stomach contents were separated and after centrifugation the volume of the gastric juices was measured, then their free-acid content and total acidity, resp., were determined by titration with 0.1N NaOH solution. The changes of the gastric mucous membrane were investigated macroscopically and characterized by an ulcus index determined with the aid of the punctuation method of Adami and coworkers."}, "mice": {"test_system": "mice", "assay_type": "in vivo", "details": "p.o., motility inhibiting effect", "method": "Method: Borsy, J., Csanyi, E., Lazar, I.: Arch. Int. Pharmacodyn. 124, 1-2 (1960)\nThe tests were performed on mice. Groups consisting of 3 mice each were trated perorally with different doses of the compounds to be tested. One hour after the administration the test animals were placed in a Dews equipment. In this equipment the number of interruptions of infrared beam within 30 minutes was counted."}, "Acute toxicity on mice": {"assay": "Acute toxicity on mice", "details": "mouse, in vivo, po, observed 14 days", "method": "Method: Litchfield, J. T., Wilcoxon, F. W.: Pharmacol. Exp. Ther., 96, 99 (1949)\nWhite mice belonging to the CFLP strain (body weight 18 to 22 g, both male and female) were used, 6 animals for each dose. The test compounds were administered orally in a volume of 20 ml/kg. […] The mice were kept in a plastic cage at room temperature. The animals get tap water and standard mouse fodder ad libitum. The toxicity data were determined with the aid of the method of Litchfield and Wilcoxon."}, "[2]": {"test_system": "Acinetobacter calcoaceticus", "assay": "Antimicrobial effect, agar diffusion method", "assay_type": "cell-based", "details": "HNCMB 150001; 500/μg/hole", "description": "(§1) In addition, the compounds according to the invention posses valuable antimicrobial effect, especially against nonfermenting Gram-negative bacteria strains."}, "Alcaligenea faecalis": {"test_system": "Alcaligenea faecalis", "assay": "Antimicrobial effect, agar diffusion method", "assay_type": "cell-based", "details": "HNCMB 140001; 500/μg/hole", "description": "as §1"}, "Pseudomonas aeruginosa": {"test_system": "Pseudomonas aeruginosa", "assay": "Antimicrobial effect, agar diffusion method", "assay_type": "cell-based", "details": "HNCMB 170006; 500/μg/hole", "description": "as §1"}, "Shigella sonnei": {"test_system": "Shigella sonnei", "assay": "Antimicrobial effect, agar diffusion method", "assay_type": "cell-based", "details": "HNCMB 20046; 500/μg/hole", "description": "as §1"}, "Salmonella enteritidus": {"test_system": "Salmonella enteritidus", "assay": "Antimicrobial effect, agar diffusion method", "assay_type": "cell-based", "details": "HNCMB 10091; 500/μg/hole", "description": "as §1"}, "Pseudomonas stutzeri": {"test_system": "Pseudomonas stutzeri", "assay": "Antimicrobial effect, agar diffusion method", "assay_type": "cell-based", "details": "HNCMB 173008; 500/μg/hole", "description": "as §1"}, "[3]": {"test_system": "experimental coronaria insufficiency", "assay": "Antianginal effect (vasopressin-induced experimental coronaria insufficiency, ECG wave T)", "assay_type": "in vivo", "details": "Rattus norvegicus; rats, iv., 2 minutes prior to vasopressin", "method": "The test was carried out on rats weighing 180 to 220 g. The animals were narcotised with chloralese-urethane (70-700 mg/kg ip.). The ECG was registered with needle electrodes in standard II leading. The experimental coronaria insufficiency was induced with vasopressin (1 NE/kg i.v.). The height of wave T was measured before and after the administration of vasopressin in both the control and treated groups."}}}
{"smiles": "CN/C(=N/CCSCc1nc[nH]c1C)NC#N", "note": "[Cimetidine, reference compound]", "values": [{"measurement": "Inhibition related to the control in %, free acid", "setting": "[1]; 50 mg/kg po.", "value": 24, "unit": "%"}, {"measurement": "Inhibition related to the control in %, gastric juice", "setting": "[1]; 50 mg/kg po.", "value": 22, "unit": "%"}, {"measurement": "Inhibition related to the control in %, total acidity", "setting": "[1]; 50 mg/kg po.", "value": 15, "unit": "%"}, {"measurement": "Inhibition related to the control in %, ulcus index", "setting": "[1]; 50 mg/kg po.", "value": 18, "unit": "%"}, {"measurement": "Inhibition related to the control in %, free acid", "setting": "[1]; 200 mg/kg po.", "value": 91, "unit": "%"}, {"measurement": "Inhibition related to the control in %, gastric juice", "setting": "[1]; 200 mg/kg po.", "value": 59, "unit": "%"}, {"measurement": "Inhibition related to the control in %, total acidity", "setting": "[1]; 200 mg/kg po.", "value": 71, "unit": "%"}, {"measurement": "Inhibition related to the control in %, ulcus index", "setting": "[1]; 200 mg/kg po.", "value": 72, "unit": "%"}]}
{"smiles": "CN(N)C(=S)n1nc(N2CCOCC2)nc1N", "note": "[Example 1, 1-(5-Amino-3-morpholino-1H-1,2,4-triazol-1-yl)-N-methyl-carbothiohydrazide]", "values": [{"measurement": "Therapeutical index", "setting": "mice", "value": "> 10"}, {"measurement": "LD50 at 336 h", "setting": "Acute toxicity on mice", "value": "> 1000", "unit": "mg/kg"}]}
{"smiles": "CSc1nc(N)n(C(=S)N(C)N)n1", "note": "[Example 4, 1-(5-Amino-3-methylthio-1H-1,2,4-triazol-1-yl)-N-methyl-carbothiohydrazide]", "values": [{"measurement": "Inhibition related to the control in %, free acid", "setting": "[1]; 60 mg/kg po.", "value": 60, "unit": "%"}, {"measurement": "Inhibition related to the control in %, gastric juice", "setting": "[1]; 60 mg/kg po.", "value": 41, "unit": "%"}, {"measurement": "Inhibition related to the control in %, total acidity", "setting": "[1]; 60 mg/kg po.", "value": 50, "unit": "%"}, {"measurement": "Inhibition related to the control in %, ulcus index", "setting": "[1]; 60 mg/kg po.", "value": 67, "unit": "%"}, {"measurement": "LD50 at 336 h", "setting": "Acute toxicity on mice", "value": 300, "unit": "mg/kg"}]}
{"smiles": "CN1CCN(c2nc(N)n(C(=S)N(C)N)n2)CC1", "note": "[Example 9]", "values": [{"measurement": "LD50 at 336 h", "setting": "Acute toxicity on mice", "value": 1000, "unit": "mg/kg"}, {"measurement": "Inhibition (%)", "setting": "[2]", "value": 20, "unit": "%"}, {"measurement": "Inhibition (%)", "setting": "Alcaligenea faecalis", "value": 23, "unit": "%"}, {"measurement": "Inhibition (%)", "setting": "Pseudomonas aeruginosa", "value": 14, "unit": "%"}, {"measurement": "Inhibition (%)", "setting": "Shigella sonnei", "value": 19, "unit": "%"}, {"measurement": "Inhibition (%)", "setting": "Salmonella enteritidus", "value": 17, "unit": "%"}, {"measurement": "Inhibition (%)", "setting": "Pseudomonas stutzeri", "value": 25, "unit": "%"}]}
{"smiles": "NNC(=S)n1nc(N2CCOCC2)nc1N", "note": "[Example 16, 1-(5-Amino-3-morpholino-1H-1,2,4-triazol-1-yl)carbothiohydrazide]", "values": [{"measurement": "LD50 at 336 h", "setting": "Acute toxicity on mice", "value": 1000, "unit": "mg/kg"}, {"measurement": "ED50", "setting": "[3]", "value": 0.7, "unit": "mg/kg"}]}
{"smiles": "CSc1nc(N)n(C(=S)NN)n1", "note": "[Example 17, 1-(5-Amino-3-methylthio-1H-1,2,4-triazol-1-yl)carbothiohydrazide]", "values": [{"measurement": "Therapeutical index", "setting": "mice", "value": "~ 5"}, {"measurement": "LD50 at 336 h", "setting": "Acute toxicity on mice", "value": 350, "unit": "mg/kg"}, {"measurement": "ED50", "setting": "[3]", "value": 0.84, "unit": "mg/kg"}]}
{"smiles": "CNN(C)C(=S)n1nc(N2CCOCC2)nc1N", "note": "[Example 20, 1-(5-Amino-3-morpholino-1H-1,2,4-triazol-1-yl)-N,N'-dimethyl-carbothiohydrazide]", "values": [{"measurement": "Inhibition related to the control in %, free acid", "setting": "[1]; 50 mg/kg po.", "value": 46, "unit": "%"}, {"measurement": "Inhibition related to the control in %, gastric juice", "setting": "[1]; 50 mg/kg po.", "value": 36, "unit": "%"}, {"measurement": "Inhibition related to the control in %, total acidity", "setting": "[1]; 50 mg/kg po.", "value": 36, "unit": "%"}, {"measurement": "Inhibition related to the control in %, ulcus index", "setting": "[1]; 50 mg/kg po.", "value": 39, "unit": "%"}, {"measurement": "Inhibition related to the control in %, free acid", "setting": "[1]; 200 mg/kg po.", "value": 91, "unit": "%"}, {"measurement": "Inhibition related to the control in %, gastric juice", "setting": "[1]; 200 mg/kg po.", "value": 58, "unit": "%"}, {"measurement": "Inhibition related to the control in %, total acidity", "setting": "[1]; 200 mg/kg po.", "value": 78, "unit": "%"}, {"measurement": "Inhibition related to the control in %, ulcus index", "setting": "[1]; 200 mg/kg po.", "value": 70, "unit": "%"}, {"measurement": "LD50 at 336 h", "setting": "Acute toxicity on mice", "value": 1000, "unit": "mg/kg"}]}
{"smiles": "CCCC(C)(COC(N)=O)COC(N)=O", "note": "[Meprobamate, reference compound]", "values": [{"measurement": "Therapeutical index", "setting": "mice", "value": 4.1}]}
{"smiles": "CC(Cc1ccccc1)NCCC(c1ccccc1)c1ccccc1", "note": "(centres unmarked) [Prenylamine, reference compound]", "values": [{"measurement": "ED50", "setting": "[3]", "value": 6.5, "unit": "mg/kg"}]}
